Structures are written as SMILES. Where two headings read alike, the source gives them in different places.

Holding throughout (type): cell-based
In test [1] the test system is MSSA3 (methicillin-sensitive Staphylococcus aureus clinical isolate). The experiment in a line: Broth microdilution MIC (NCCLS 2000), strain MSSA3. As to conditions: 18 h. On the procedure: (§1) Antimicrobial susceptibility testing was performed by broth assay followed standard laboratory procedures (the National Committee for Clinical Laboratory Standards (NCCLS) protocol 2000). The MIC in this assay was defined as the lowest concentration of the antibiotic under test that inhibited the visible growth of the microorganism under study.
(§2) There were eight strains of Staphylococcus aureus tested. All were from clinical isolates as they represent strains actually present in the community and so of clinical relevance. Three strains were sensitive to methicillin (MSSA), and five strains were resistant to methicillin (MRSA).
(§3) The MIC for each of the eight strains was determined for penicillin G and for vancomycin using dilutions made from the stock preparations purchased (both from Sigma). […]
(§4) The antimicrobial susceptibility test was performed in a 96-well microtitre plate and following standard National Committee for Clinical Laboratory Standards (NCCLS) protocol (NCCLS, 2000). […] Minimal inhibitory concentration (MIC) was determined by the microdilution method in Mueller-Hinton broth (Oxoid, Hampshire, UK), according to the standards of the NCCLS (2000). […]
(§5) Each bacterial strain was plated overnight on Mueller-Hinton agar and then transferred to a broth 3 hours before the assay was performed. […] Microplates were examined 18 hours later and determined for MIC. […]
On the technique in general: Dilution methods test growth across graded concentrations, often in twofold steps.

In test [2] the test system is MSSA1 (methicillin-sensitive Staphylococcus aureus clinical isolate). The experiment in a line: Broth microdilution MIC (NCCLS 2000), strain MSSA1. Conditions: 18 h. As to the method:
as §1, §2, §3, §4, §5

Test [3] deals with MSSA2 (methicillin-sensitive Staphylococcus aureus clinical isolate). The experiment in a line: Broth microdilution MIC (NCCLS 2000), strain MSSA2. Conditions: 18 h. On the procedure: as §1, §2, §3, §4, §5
In test [4] the test system is MRSA5 (methicillin-resistant Staphylococcus aureus clinical isolate). The experiment in a line: Broth microdilution MIC (NCCLS 2000), strain MRSA5. Conditions: 18 h. On the procedure: as §1, §2, §3, §4, §5
Test [5] has as its system eight strains of Staphylococcus aureus (MSSA and MRSA clinical isolates). The experiment in a line: Broth microdilution MIC (NCCLS 2000), summary over all tested strains. As to conditions: read-out: MIC concentrations of the different strains. On the procedure:
as §1, §2, §3, §4, §5

Test [6] relates to MRSA3 (methicillin-resistant Staphylococcus aureus clinical isolate). The experiment in a line: Broth microdilution MIC (NCCLS 2000), strain MRSA3. Conditions: 18 h. On the procedure: as §1, §2, §3, §4, §5
For test [7], the system named is MRSA2 (methicillin-resistant Staphylococcus aureus clinical isolate). The experiment in a line: Broth microdilution MIC (NCCLS 2000), strain MRSA2. As to conditions: 18 h. As to the method:
as §1, §2, §3, §4, §5

Test [8] concerns MRSA1 (methicillin-resistant Staphylococcus aureus clinical isolate). The experiment in a line: Broth microdilution MIC (NCCLS 2000), strain MRSA1. As to conditions: 18 h. As to the method:
as §1, §2, §3, §4, §5

In test [9] the test system is MRSA4 (methicillin-resistant Staphylococcus aureus clinical isolate). The experiment in a line: Broth microdilution MIC (NCCLS 2000), strain MRSA4. Conditions: 18 h. As to the method:
as §1, §2, §3, §4, §5

Regarding `CC1(C)S[C@@H]2[C@H](NC(=O)Cc3ccccc3)C(=O)N2[C@H]1C(=O)O` [Pen, penicillin G], the MIC is 8 µg/mL in test [1] (strain MSSA3, extract where present 1% w/v final, 37° C., Mueller-Hinton broth, read-out: MIC); 64 µg/mL in test [2] (strain MSSA1, extract where present 1% w/v final, 37° C., Mueller-Hinton broth, read-out: MIC); 32 µg/mL in test [3] (strain MSSA2, extract where present 1% w/v final, 37° C., Mueller-Hinton broth, read-out: MIC); 512 µg/mL in test [4] (strain MRSA5, extract where present 1% w/v final, 37° C., Mueller-Hinton broth, read-out: MIC); 8 to 1020 µg/mL in test [5] (antibiotic alone, range over the eight MSSA and MRSA strains); 1020 µg/mL in test [6] (strain MRSA3, extract where present 1% w/v final, 37° C., Mueller-Hinton broth, read-out: MIC). Also, the MIC in [7] (strain MRSA2, extract where present 1% w/v final, 37° C., Mueller-Hinton broth, read-out: MIC) amounted to 256 µg/mL; in test [8] (strain MRSA1, extract where present 1% w/v final, 37° C., Mueller-Hinton broth, read-out: MIC), 512 µg/mL; in test [9] (strain MRSA4, extract where present 1% w/v final, 37° C., Mueller-Hinton broth, read-out: MIC) it was 256 µg/mL.

For `CN[C@H](CC(C)C)C(=O)N[C@H]1C(=O)N[C@@H](CC(N)=O)C(=O)N[C@H]2C(=O)N[C@H]3C(=O)N[C@H](C(=O)N[C@H](C(=O)O)c4cc(O)cc(O)c4-c4cc3ccc4O)[C@H](O)c3ccc(c(Cl)c3)Oc3cc2cc(c3O[C@@H]2O[C@H](CO)[C@@H](O)[C@H](O)[C@H]2O[C@H]2C[C@](C)(N)[C@H](O)[C@H](C)O2)Oc2ccc(cc2Cl)[C@H]1O` [Van, vancomycin], the MIC in test [1] is 0.5 µg/mL; in test [2] it was 0.5 µg/mL; in test [3], 0.5 µg/mL; in [4] it was 0.5 µg/mL; in test [5] it was 0.5 to 1 µg/mL; in [6], 1 µg/mL. The results for the MIC in [7], in [8] and in test [9] were 1 µg/mL, 0.5 µg/mL and 0.5 µg/mL, respectively.

The record behind these values is US20070059321A1, “Methods of reducing minimal inhibitory concentration of antibiotics and compositions resulting therefrom” (The Hong Kong Polytechnic University, priority 2005, published 2007).
